According to ChEMBL document CHEMBL1156482, “Molecular mechanism of action of monocyclam versus bicyclam non-peptide antagonists in the CXCR4 chemokine receptor” (J Biol Chem, 2007):
Calls of active or inactive are those of the source. The rule behind the calls is not given here.

Columns and labels:
[1] = biological target: C-X-C chemokine receptor type 4 (Homo sapiens, UniProt P61073, Q200A); assay: (§1) Antagonist activity at human CXCR4 Q200A mutant expressed in COS7 cells coexpressing G protein Gqi4myr assessed as inhibition of CXCL12-induced phosphatidylinositol turnover; type: functional, cell-based, COS-7
[2] = test system: C-X-C chemokine receptor type 4 (Homo sapiens), P61073 [Q200A]; assay: as §1; type: functional, cell-based; settings: COS-7
[3] = biological target: C-X-C chemokine receptor type 4 (Homo sapiens, UniProt P61073, D262N); assay: (§2) Displacement of [125I]12G5 antibody from transmembrane domain 6 of human CXCR4 D262N mutant expressed in COS7 cells; type: cell-based, COS-7
[4] = test system: C-X-C chemokine receptor type 4 (Homo sapiens), P61073 [D262N]; assay: as §2; type: cell-based; settings: COS-7
[5] = test system: Human immunodeficiency virus 1; assay: Antiviral activity against HIV1 clinical isolate 10 infected in U87.CD4 cells expressing human CXCR4 H281A mutant; type: functional, organism-based; settings: Human immunodeficiency virus 1, U87.CD4
[6] = test system: C-X-C chemokine receptor type 4 (Homo sapiens), P61073 [N176A]; assay: (§3) Displacement of [125I]12G5 antibody from extracellular loop 2 of human CXCR4 N176A mutant expressed in COS7 cells; type: cell-based; settings: COS-7
[7] = biological target: C-X-C chemokine receptor type 4 (Homo sapiens, UniProt P61073, N176A); assay: as §3; type: cell-based, COS-7
[8] = test system: C-X-C chemokine receptor type 4 (Homo sapiens), P61073 [I259W]; assay: (§4) Displacement of [125I]12G5 antibody from transmembrane domain 6 of human CXCR4 I259W mutant expressed in COS7 cells; type: cell-based; settings: COS-7
[9] = biological target: C-X-C chemokine receptor type 4 (Homo sapiens, UniProt P61073, I259W); assay: as §4; type: cell-based, COS-7
[10] = test system: C-X-C chemokine receptor type 4 (Homo sapiens), P61073 [H113A]; assay: (§5) Displacement of [125I]12G5 antibody from transmembrane domain 3 of human CXCR4 H113A mutant expressed in COS7 cells; type: cell-based; settings: COS-7
[11] = biological target: C-X-C chemokine receptor type 4 (Homo sapiens, UniProt P61073, H113A); assay: as §5; type: cell-based, COS-7
[12] = biological target: C-X-C chemokine receptor type 4 (Homo sapiens, UniProt P61073, S263A); assay: (§6) Displacement of [125I]12G5 antibody from transmembrane domain 6 of human CXCR4 S263A mutant expressed in COS7 cells; type: cell-based, COS-7
[13] = test system: C-X-C chemokine receptor type 4 (Homo sapiens), P61073 [S263A]; assay: as §6; type: cell-based; settings: COS-7
[14] = test system: Human immunodeficiency virus 1; assay: Antiviral activity against HIV1 NDK infected in U87.CD4 cells expressing human CXCR4 D171ND262N mutant; type: functional, organism-based; settings: Human immunodeficiency virus 1, NDK
[15] = test system: C-X-C chemokine receptor type 4 (Homo sapiens), P61073 [E288A]; assay: (§7) Antagonist activity at human CXCR4 E288A mutant expressed in COS7 cells coexpressing G protein Gqi4myr assessed as inhibition of CXCL12-induced phosphatidylinositol turnover; type: functional, cell-based; settings: COS-7
[16] = biological target: C-X-C chemokine receptor type 4 (Homo sapiens, UniProt P61073, E288A); assay: as §7; type: functional, cell-based, COS-7
[17] = test system: C-X-C chemokine receptor type 4 (Homo sapiens), P61073 [V196A]; assay: (§8) Antagonist activity at human CXCR4 V196A mutant expressed in COS7 cells coexpressing G protein Gqi4myr assessed as inhibition of CXCL12-induced phosphatidylinositol turnover; type: functional, cell-based; settings: COS-7
[18] = biological target: C-X-C chemokine receptor type 4 (Homo sapiens, UniProt P61073, V196A); assay: as §8; type: functional, cell-based, COS-7
[19] = biological target: C-X-C chemokine receptor type 4 (Homo sapiens, UniProt P61073, I259A); assay: (§9) Antagonist activity at transmembrane domain 6 of human CXCR4 I259A mutant expressed in COS7 cells coexpressing G protein Gqi4myr assessed as inhibition of CXCL12-induced phosphatidylinositol turnover; type: functional, cell-based, COS-7
[20] = test system: C-X-C chemokine receptor type 4 (Homo sapiens), P61073 [I259A]; assay: as §9; type: functional, cell-based; settings: COS-7
[21] = test system: Human immunodeficiency virus 1; assay: Antiviral activity against HIV1 NL43 infected in U87.CD4 cells expressing human wild type CXCR4; type: functional, organism-based; settings: Human immunodeficiency virus 1, NL43, U87.CD4
[22] = test system: C-X-C chemokine receptor type 4 (Homo sapiens), P61073 [H281A]; assay: Antagonist activity at human CXCR4 H281A mutant expressed in U87.CD4 cells assessed as inhibition of CXCL12-induced calcium mobilization; type: functional, cell-based
[23] = test system: C-X-C chemokine receptor type 4 (Homo sapiens), P61073 [H281A]; assay: (§10) Antagonist activity at human CXCR4 H281A mutant expressed in COS7 cells coexpressing G protein Gqi4myr assessed as inhibition of CXCL12-induced phosphatidylinositol turnover; type: functional, cell-based; settings: COS-7
[24] = biological target: C-X-C chemokine receptor type 4 (Homo sapiens, UniProt P61073, H281A); assay: as §10; type: functional, cell-based, COS-7
[25] = biological target: C-X-C chemokine receptor type 4 (Homo sapiens, UniProt P61073, Y255A); assay: (§11) Antagonist activity at human CXCR4 Y255A mutant expressed in COS7 cells coexpressing G protein Gqi4myr assessed as inhibition of CXCL12-induced phosphatidylinositol turnover; type: functional, cell-based, COS-7
[26] = test system: C-X-C chemokine receptor type 4 (Homo sapiens), P61073 [Y255A]; assay: as §11; type: functional, cell-based; settings: COS-7
[27] = test system: C-X-C chemokine receptor type 4 (Homo sapiens), P61073 [D187A]; assay: (§12) Displacement of [125I]12G5 antibody from extracellular loop 2 of human CXCR4 D187A mutant expressed in COS7 cells; type: cell-based; settings: COS-7
[28] = biological target: C-X-C chemokine receptor type 4 (Homo sapiens, UniProt P61073, D187A); assay: as §12; type: cell-based, COS-7
[29] = test system: C-X-C chemokine receptor type 4 (Homo sapiens), P61073 [A175F]; assay: (§13) Displacement of [125I]12G5 antibody from extracellular loop 2 of human CXCR4 A175F mutant expressed in COS7 cells; type: cell-based; settings: COS-7
[30] = biological target: C-X-C chemokine receptor type 4 (Homo sapiens, UniProt P61073, A175F); assay: as §13; type: cell-based, COS-7
[31] = test system: Human immunodeficiency virus 1; assay: Antiviral activity against HIV1 NL43 infected in U87.CD4 cells expressing human CXCR4 D262N mutant; type: functional, organism-based; settings: Human immunodeficiency virus 1, NL43, U87.CD4
[32] = test system: Human immunodeficiency virus 1; assay: Antiviral activity against HIV1 clinical isolate 10 infected in U87.CD4 cells expressing human CXCR4 D262N mutant; type: functional, organism-based; settings: Human immunodeficiency virus 1, U87.CD4
[33] = test system: Human immunodeficiency virus 1; assay: Antiviral activity against HIV1 NDK infected in U87.CD4 cells expressing human CXCR4 E288A mutant; type: functional, organism-based; settings: Human immunodeficiency virus 1, NDK
[34] = test system: C-X-C chemokine receptor type 4 (Homo sapiens), P61073 [Y256A]; assay: (§14) Displacement of [125I]12G5 antibody from transmembrane domain 6 of human CXCR4 Y256A mutant expressed in COS7 cells; type: cell-based; settings: COS-7
[35] = biological target: C-X-C chemokine receptor type 4 (Homo sapiens, UniProt P61073, Y256A); assay: as §14; type: cell-based, COS-7
[36] = biological target: C-X-C chemokine receptor type 4 (Homo sapiens, UniProt P61073, Q200W); assay: (§15) Displacement of [125I]12G5 antibody from transmembrane domain 5 of human CXCR4 Q200W mutant expressed in COS7 cells; type: cell-based, COS-7
[37] = test system: C-X-C chemokine receptor type 4 (Homo sapiens), P61073 [Q200W]; assay: as §15; type: cell-based; settings: COS-7
[38] = test system: Human immunodeficiency virus 1; assay: Antiviral activity against HIV1 NDK infected in U87.CD4 cells expressing human CXCR4 D262N mutant; type: functional, organism-based; settings: Human immunodeficiency virus 1, NDK
[39] = test system: Human immunodeficiency virus 1; assay: Antiviral activity against HIV1 clinical isolate 10 infected in U87.CD4 cells expressing human wild type CXCR4; type: functional, organism-based; settings: Human immunodeficiency virus 1, U87.CD4

C-X-C chemokine receptor type 4 (Homo sapiens), P61073 [H281A], sequence (P61073 whole entry H281A): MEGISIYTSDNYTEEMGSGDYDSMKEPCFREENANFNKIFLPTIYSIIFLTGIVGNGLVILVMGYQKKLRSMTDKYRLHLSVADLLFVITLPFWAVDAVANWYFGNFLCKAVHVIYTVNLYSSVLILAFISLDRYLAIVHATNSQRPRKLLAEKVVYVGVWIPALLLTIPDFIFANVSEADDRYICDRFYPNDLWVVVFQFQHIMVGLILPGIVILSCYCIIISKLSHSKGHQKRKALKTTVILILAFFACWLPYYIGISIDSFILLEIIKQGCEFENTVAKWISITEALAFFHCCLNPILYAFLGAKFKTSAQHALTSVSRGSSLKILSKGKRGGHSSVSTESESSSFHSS
C-X-C chemokine receptor type 4 (Homo sapiens), P61073 [D262N], sequence (P61073 whole entry D262N): as the sequence (P61073 whole entry H281A) above, with D262N, A281H counted along it
C-X-C chemokine receptor type 4 (Homo sapiens, UniProt P61073, D262N), sequence (P61073 whole entry D262N, the tested form may be a part): as the sequence (P61073 whole entry H281A) above, with D262N, A281H counted along it
C-X-C chemokine receptor type 4 (Homo sapiens), P61073 [I259W], sequence (P61073 whole entry I259W, the tested form may be a part): as the sequence (P61073 whole entry H281A) above, with I259W, A281H counted along it
C-X-C chemokine receptor type 4 (Homo sapiens, UniProt P61073, I259W), sequence (P61073 whole entry I259W, the tested form may be a part): as the sequence (P61073 whole entry H281A) above, with I259W, A281H counted along it
C-X-C chemokine receptor type 4 (Homo sapiens), P61073 [N176A], sequence (P61073 whole entry N176A): as the sequence (P61073 whole entry H281A) above, with N176A, A281H counted along it
C-X-C chemokine receptor type 4 (Homo sapiens, UniProt P61073, N176A), sequence (P61073 whole entry N176A, the tested form may be a part): as the sequence (P61073 whole entry H281A) above, with N176A, A281H counted along it
C-X-C chemokine receptor type 4 (Homo sapiens), P61073 [I259A], sequence (P61073 whole entry I259A): as the sequence (P61073 whole entry H281A) above, with I259A, A281H counted along it
C-X-C chemokine receptor type 4 (Homo sapiens, UniProt P61073, I259A), sequence (P61073 whole entry I259A, the tested form may be a part): as the sequence (P61073 whole entry H281A) above, with I259A, A281H counted along it
C-X-C chemokine receptor type 4 (Homo sapiens, UniProt P61073, Q200W), sequence (P61073 whole entry Q200W, the tested form may be a part): as the sequence (P61073 whole entry H281A) above, with Q200W, A281H counted along it
C-X-C chemokine receptor type 4 (Homo sapiens), P61073 [Q200W], sequence (P61073 whole entry Q200W): as the sequence (P61073 whole entry H281A) above, with Q200W, A281H counted along it
C-X-C chemokine receptor type 4 (Homo sapiens), P61073 [E288A], sequence (P61073 whole entry E288A): as the sequence (P61073 whole entry H281A) above, with A281H, E288A counted along it
C-X-C chemokine receptor type 4 (Homo sapiens, UniProt P61073, E288A), sequence (P61073 whole entry E288A): as the sequence (P61073 whole entry H281A) above, with A281H, E288A counted along it

c1ccc(CNCc2ccc(CN3CCCNCCNCCCNCC3)cc2)nc1 gave a Ki [1] of 150 nM, a logIC50 [2] of -6.84 and a Ki [3] of 600000 nM. For the same compound, the logKi [4] was -3.22, the IC50 [5] was 1950 nM and the logKi [6] was -6.98. The Ki [7] was 100 nM, the logKi [8] was -4.75 and the Ki [9] was 18000 nM. The logKi [10] was -5.6, the Ki [11] was 2500 nM and the Ki [12] was 530 nM. It also gave a logKi [13] of -6.27, an IC50 [14] of 4640 nM and a logIC50 [15] of -5.17. For the same compound, the Ki [16] was 1900 nM, the logIC50 [17] was -7.71 and the Ki [18] was 200 nM. It also gave a Ki [19] of 30 nM, a logIC50 [20] of -7.55 and an IC50 [21] of 36000 nM. The Activity [22] was “inactive”, the logIC50 [23] was -5.8 and the Ki [24] was 1600 nM. For the same compound, the Ki [25] was 20 nM, the logIC50 [26] was -7.79 and the logKi [27] was -6.27. It also gave a Ki [28] of 530 nM, a logKi [29] of -3.67 and a Ki [30] of 215000 nM. For the same compound, the IC50 [31] was 38 nM, the IC50 [32] was 3820 nM and the IC50 [33] was over 5500 nM. It also gave a logKi [34] of -6.5, a Ki [35] of 320 nM and a Ki [36] of 1200 nM. The logKi [37] was -5.94, the IC50 [38] was 5380 nM and the IC50 [39] was 4700 nM.
